# Experimental data published in patent US5426186A (priority 1993, dated 1995).
# pIC50: −log10 of the molar value. Where a name gives a salt, the structure may show the parent alone.
# Target: GABAa receptor
# Test: GABAa receptor binding assay, displacement of 3H-RO15-1788 from rat cortical tissue
# Conditions: 0.5 nM 3H-RO15-1788, rat cortical homogenate, 4° C., nonspecific binding with 1.0 μM diazepam
# Protocol: The pharmaceutical utility of compounds of this invention are indicated by the following assay for GABAa receptor activity.
# Assays are carried out as described in Thomas and Tallman (J. Bio. Chem. 156: 9838-9842, J. Neurosci. 3:433-440, 1983). Rat cortical tissue is dissected and homogenized in 25 volumes (w/v) of 0.05M Tris HCl buffer (pH 7.4 at 4° C.). The tissue homogenate is centrifuged in the cold (4°) at 20,000×g for 20'. The supernatant is decanted and the pellet is rehomogenized in the same volume of buffer and again centrifuged at 20,000×g. The supernatant is decanted and the pellet is frozen at -20° C. overnight. The pellet is then thawed and rehomogenized in 25 volume (original wt/vol) of buffer and the procedure is carried out twice. The pellet is finally resuspended in 50 volumes (w/vol of 0.05M Tris HCl buffer (pH 7.4 at […]).
# Incubations contain 100 μl of tissue homogenate, 100 μl of radioligand 0.5 nM (^3 H-RO15-1788 specific activity 80 Ci/mmol), drug or blocker and buffer to a total volume of 500 μl. Incubations are carried for 30 rain at 4° C. then are rapidly filtered through GFB filters to separate free and bound ligand. Filters are washed twice with fresh 0.05M Tris HCl buffer (pH 7.4 at 4° C.) and counted in a liquid scintillation counter 1.0 μM diazepam is added to some tubes to determine nonspecific binding. Data are collected in triplicate determinations, averaged and % inhibition of total specific binding is calculated. Total Specific Binding=Total-Nonspecific. In some cases, the amounts of unlabeled drugs is varied and total displacement curves of binding are carried out. Data are converted to a form for the calculation of IC50 and Hill Coefficient (nH).
row,SMILES,pIC50
1,"O=c1[nH]c2c(c3nc(-c4ccccc4)cn13)CCCCC2 [Compound 13, 2-Phenyl-8,9,10,11-tetrahydro-7H-cyclohept[g]-imidazo[1,2-c]pyrimidin-5(6H)-one]",6.10
2,"O=c1[nH]c2c(c3nc(-c4ccccc4)cn13)CCC2 [Compound 12, 2-Phenyl-8,9-dihydro-7H-cyclopent[g]-imidazo[1,2-c]-pyrimidin-5(6H)-one]",6.40
3,"Nc1nc2c(c3nc(-c4ccccc4F)cn13)CCCC2 [Compound 33, 5-Amino-2-(2-fluorophenyl)-7,8,9,10-tetrahydro-imidazo[1,2-c]-quinazoline]",7.00
4,"CN(C)C(=O)C1CCc2[nH]c(=O)n3cc(-c4ccccc4F)nc3c2C1 (stereo not shown) [Compound 18, 9-(N,N-Dimethylcarbamyl)-2-(2-fluorophenyl)-7,8,9,10-tetrahydro-imidazo[1,2-c]-quinazolin-5(6H)-one]",8.00
5,"CN(C)CC1CCc2[nH]c(=O)n3cc(-c4ccccc4F)nc3c2C1 (stereo not shown) [Compound 24, 9-(N,N-Dimethylaminomethyl)-2-(2-fluoropenyl)-7,8,9,10-tetrahydro-imidazo[1,2-c]-quinazolin-5(6H)-one monohydrochloride]",7.52
6,"CC(C)(C)OC(=O)NC1CCc2[nH]c(=O)n3cc(-c4ccccc4F)nc3c2C1 (stereo not shown) [Compound 28, 9-(t-Butoxycarbonylamino)-2-(2-fluorophenyl)-7,8,9,10-tetrahydro-imidazo[1,2-c]-quinazolin-5(6H)-one]",6.82
7,"CCOc1nc2c(c3nc(-c4ccccc4F)cn13)CCCC2 [Compound 39, 5-Ethoxy-2-(2-fluorophenyl)-7,8,9,10-tetrahydro-imidazo[1,2-c]-quinazoline]",5.30
8,"COc1ccc(-c2cn3c(=O)[nH]c4c(c3n2)CCCC4)c(F)c1 [Compound 51, 2-(2-Fluoro-4-methoxyphenyl)-7,8,9,10-tetrahydro-imidazo[1,2-c]-quinazolin-5(6H)-one]",8.52
9,"COc1ccc(-c2cn3c(=O)[nH]c4c(c3n2)CCCC4)cc1 [Compound 50, 2-(4-Methoxyphenyl)-7,8,9,10-tetrahydro-imidazo[1,2-c]-quinazolin-5(6H)-one]",7.30
10,"CCOC(=O)C1CCc2[nH]c(=O)n3cc(-c4ccccc4F)nc3c2C1 (stereo not shown) [Compound 1, 9-Carboethoxy-2-(2-fluorophenyl)-7,8,9,10-tetrahydro-imidazo[1,2-c]-quinazolin-5(6H)-one]",8.15
11,"Fc1ccccc1-c1cn2c(NCc3ccccc3)nc3c(c2n1)CCCC3 [Compound 31, 5-(N-benzylamino)-2-(2-fluorophenyl)-7,8,9,10-tetrahydro-imidazo[1,2-c]-quinazoline]",5.70
12,"O=c1[nH]c2c(c3nc(-c4ccccc4F)cn13)CCCC2 [Compound 5, 2-(2-Fluorophenyl)-7,8,9,10-tetrahydro-imidazo[1,2-c]-quinazolin-5(6H)-one]",8.15
13,"CC(C)OC(=O)C1CCc2[nH]c(=O)n3cc(-c4ccccc4F)nc3c2C1 (stereo not shown) [Compound 14, 9-Carboisopropoxy-2-(2-fluorophenyl)-7,8,9,10-tetrahydro-imidazo[1,2-c]-quinazolin-5(6H)-one]",8.00
